Reference: patent EP3783012A1, “AN ANTIMICROBIAL PEPTIDE” (priority 2019, dated 2021)
Where no end group is shown, it is not given here.

Experiments:
colSAB = assay: Complete Elimination (CE) Drop Plate method; type: cell-based, A. baumannii; conditions: 90 minutes challenge in PBNS
Experimental: (§1) Complete Elimination (CE) Drop Plate method: The CE method was primarily used as the antimicrobial susceptibility testing method for peptides used in this study. This was performed to avoid any interference of cations within the test media or buffer on the bioactivity of the peptides. This assay was performed by the method outlined by Chen et al. (2003) with minor modifications. Briefly, bacteria were grown overnight and sub-cultured to mid exponential phase. PBNS was used to make serial dilutions of bacteria in a 96 well plate. The appropriate volume of peptide was added to the wells at a final volume of 100 µL. As a control, PBNS was added to the bacterial suspensions without any peptide. The microtiter plate was incubated for 90 minutes at 37°C. Post challenge, 10 µL from each well was spotted onto appropriate media, depending on the strain. This was conducted in triplicate. The spots were left to dry, and the plates were incubated inverted. The first concentration to inhibit growth across all bacterial dilutions was determined as the CE concentration. Surviving colonies at sub-CE concentrations were counted after 18 hours incubation at 37°C. The reduction in colony forming units (CFU) was assessed relative to the untreated control and the log reduction induced by peptide treatment was calculated. All antimicrobial activity assays were performed in triplicate and on independent days.

colRAB [1] = assay: Complete Elimination (CE) Drop Plate method; type: cell-based, A. baumannii; conditions: 90 minutes challenge in PBNS, tested alone
Experimental: as §1

human THP-1 macrophages = assay: Ex-vivo viability assay (MTT); type: cell-based
Experimental: Ex-vivo viability assay: Cellular viability was assessed in human THP-1 macrophages by a colorimetric assay that makes use of thiazolyl blue tetrazolium bromide (MTT, Sigma). Cells were grown in Roswell Park Memorial Institute (RPMI) medium supplemented with 10% of heat inactivated fetal bovine serum (FBS), 1% L-glutamine and 1% penicillin-streptomycin. At 90% confluence, cells were centrifuged and diluted to a 1:5 ratio with complete RPMI. The monocytes were differentiated into macrophages using […] phorbol 12-myristate 13-acetate (PMA) before being seeded in a 96 well plate at a density of 1.0 x 10^4 cells/well and incubated in the presence of 5% CO2 for 72 hours at 37°C. Following this, cells were treated with increasing concentrations (0.05, 0.5, 5, 50, 500 µg/mL) of Pep_V2QV5D, magainin 2 or colistin before re-incubation for a further 24 hours. Post-incubation, 10 µL of MTT was added to each well at a final concentration of 500 µg/mL and incubated at 5% CO2 for 2 hours at 37°C. Formazan crystals were dissolved by the addition of 100 µL 100% DMSO and gentle shaking for 5 minutes at room temperature. The absorbance was measured at 570nm in a microplate spectrophotometer (Synergy H1, Biotek). Maximum toxicity was determined by cells incubated with 100% DMSO. Cell viability was calculated as a per cent of a control treated with PBNS. Three technical replicates were performed each day on three independent days.

colRAB [2] = assay: Synergy study, Fractional inhibitory concentration (FIC) by CE drop plate method; type: cell-based, A. baumannii; conditions: Pep_V2QV5D combined with colistin
Experimental: Synergy studies were conducted using the above described CE drop plate method, however two peptides were mixed in a series of concentration combinations using PBNS as a diluent before bacterial inoculation and subsequent incubation. The highest concentration combination tested was the individual CE concentrations of Pep_V2QV5D and colistin, which were 12 µg/mL and 8 µg/mL, respectively. The amounts of each compound were then reduced sequentially in various proportions until the lowest possible active combination was identified.
Traditionally, the FIC in a drug mixture is defined as the sum of the FICs (ΣFIC) and is calculated with the equation; ΣFIC = FICA + FICB = (CEcombA/CEA) + (CEcombB/CEB) [formula]
Where CEA and CEB are the killing concentrations of individual peptides A and B, respectively, and CEcombA and CEcombB are the killing concentrations of the peptides in combination. In this work we used a similar concept and analysed the ratios of FICA and FICB. 'Synergy' was interpreted as a FIC ≤ 0.5, 'antagonism' as FIC > 4.0 and 'no interaction' as FIC > 0.5-4.0 [40].

A. baumannii = assay: In vitro resistance study (14 sequential passages at sub-inhibitory concentrations); type: cell-based; conditions: repeated exposure to sub-inhibitory concentrations
Experimental: In vitro resistance study: This assay was conducted as outlined by Ge et al. 1999 with some modifications. Briefly, the in vitro passage study involved exposing bacteria diluted to […] in PBNS to Pep_V2QV5D at one-half of the previously established bactericidal concentration. After 90 minutes of incubation at 37°C, 10 µL was spotted in triplicate on MHB and incubated again overnight. Post-incubation, surviving colonies were collected, diluted in PBNS and adjusted to […] before repeated treatment with the sub-killing concentration of Pep_V2QV5D. The CE concentration was determined prior to the initiation of the study, after the 4th, 7th, 11th and 14th passages. If the CE concentration after the fourth passage was greater than the original killing concentration, then for passes 5, 6, and 7, the amount of peptide used during the bacterial challenge was increased to one-half of that new CE concentration. This was continued over a 14-day course. Magainin and colistin were used as controls for the in vitro resistance study. This assay was performed in independent duplicates.

[3] = in humans; cited from earlier work

colistin
Complete Elimination values (CE concentration) (colSAB): 0.25 µg/mL
Complete Elimination values (CE concentration) (colRAB [1]): 8 µg/mL
Complete Elimination values (CE concentration) (colRAB [1]; listed as Colistin): 8 ^(R) µg/mL
toxic concentration compared to the concentration required for antimicrobial action (therapeutic index) (human THP-1 macrophages): 6.8 times
CE concentration in combination (colRAB [2]): 1 µg/mL
fold change in the CE concentration over 14 days (A. baumannii): 16 fold

vasopressin
half-life [3]: 10 to 35 min

VRGLAPKKSLWPFGGPFKSPFN [Pep_V2QV5D]
toxic concentration compared to the concentration required for antimicrobial action (therapeutic index) (human THP-1 macrophages): over 40 times

GIGKFLHSAKKFGKAFVGEIMNS [magainin 2]
decrease in viability (human THP-1 macrophages; 50 µg/mL, 24 hours, MTT): 22%
